Laboratory results reported in ChEMBL document CHEMBL1125787, “Synthesis and anti-HIV-1 activity of 4,5,6,7-tetrahydro-5-methylimidazo[4,5,1-jk][1,4]benzodiazepin-2(1H)-on e (TIBO) derivatives. 2” (J Med Chem, 1991).

System: MT4
Test: Ability to block replication of HIV-1 virus in MT-4 cells
Conditions: Homo sapiens

SMILES	IC50 [µM]
CC1Cn2c(S)nc3cc(Cl)cc(c32)CN1CC1CCC1 (stereo unspecified)	0.026
C=CCN1Cc2cccc3c2C(CC1C)C(S)=N3 (stereo unspecified)	> 250
C=C(C)CN1Cc2cccc3ncn(c23)CC1C (stereo unspecified)	> 2
CC(C)=CCN1Cc2cc(Cl)cc3[nH]c(=S)n(c23)C[C@@H]1C	0.039
CC1Cn2c(O)nc3cc(Cl)cc(c32)CN1CC1CCC1 (stereo unspecified)	0.38
CC1Cn2c(S)nc3cc(Cl)cc(c32)CN1CCC1CC1 (stereo unspecified)	0.42
C=CCn1c(=O)n2c3c(cccc31)CN(CCC)C(C)C2 (stereo unspecified)	> 50
CC(C)=CCN1Cc2cc(Cl)cc3nc([SeH])n(c23)CC1C (stereo unspecified)	0.018
C=C(C)CN1Cc2cccc3c2C(CC1C)C(=O)N3 (stereo unspecified)	> 50
CC(C)=CCN1Cc2cc(Cl)cc3[nH]c(=O)n(c23)C[C@H]1C	4.2
CNc1nc2cccc3c2n1CC(C)N(CC=C(C)C)C3 (stereo unspecified)	> 250
CCCN1Cc2cccc3c2n(c(=O)n3CC#N)CC1C (stereo unspecified)	> 250
COC(=O)Nc1nc2cc(Cl)cc3c2n1C[C@@H](C)N(CC=C(C)C)C3	> 10
COc1nc2cccc3c2n1CC(C)N(CC=C(C)C)C3 (stereo unspecified)	> 250
Cc1cn([C@H]2C[C@H](N=[N+]=[N-])[C@@H](CO)O2)c(=O)[nH]c1=O [ZIDOVUDINE]	0.004
CCCN1Cc2cccc3c2n(c(=O)n3C)CC1C (stereo unspecified)	> 250
C=C(C)CN1Cc2cccc3c2C(CC1C)C(S)=N3 (stereo unspecified)	> 10
CC1Cn2c(N=C(N)N)nc3cc(Cl)cc(c32)CN1CC1CC1 (stereo unspecified)	> 50
C=C(C)CN1Cc2cccc3nc(S)n(c23)CC1C (stereo unspecified)	0.026
CC(C)=CCN1Cc2cccc3[nH]c(=S)n(c23)C[C@@H]1C	0.097
CC(C)=CCN1Cc2cccc3nc(N(C)C)n(c23)CC1C (stereo unspecified)	> 250
CCC(=CCN1Cc2cc(Cl)cc3nc(S)n(c23)CC1C)CC (stereo unspecified)	0.012
O=c1[nH]cnc2c1ncn2[C@H]1CC[C@@H](CO)O1 [DIDANOSINE]	5.5

SMILES	IC50 [µM]
CC(C)=CCN1Cc2cc(Cl)cc3[nH]c(=O)n(c23)C[C@@H]1C	0.18
CC(C)=CCN1Cc2cc(Cl)cc3nc(S)n(c23)C[C@H]1C	0.39
CC1Cn2c(S)nc3cccc(c32)CN1CC1CC1 (stereo unspecified)	0.06
CCCN1Cc2cccc3[nH]c(=O)n(c23)CC1C (stereo unspecified)	60
CC(C)=CCN1Cc2cc(Cl)cc3nc(NC#N)n(c23)CC1C (stereo unspecified)	> 250
C/N=C(/S)N1CC(C)N(CC2CC2)Cc2cc(Cl)ccc21 (stereo unspecified)	> 10
C=C(C)CN1Cc2cccc3c2C(O)(CC1C)C(=O)N3 (stereo unspecified)	> 250
CCCN1Cc2cccc3[nH]c(=S)n(c23)CC1C (stereo unspecified)	1.7
CC1Cn2c(O)nc3cc(Cl)cc(c32)CN1CCC1CC1 (stereo unspecified)	2.2
CC1Cn2c(O)nc3cccc(c32)CN1CC1CC1 (stereo unspecified)	10
CC1CN2c3c(cc(Cl)cc3NS2(=O)=O)CN1CC1CC1 (stereo unspecified)	> 10
CCCN1Cc2cccc3[nH]cc(c23)CC1C (stereo unspecified)	> 250
C=C(C)CN1Cc2cccc3[nH]c(=O)n(c23)CC1C (stereo unspecified)	15.2
CC1Cn2c(=O)oc3cccc(c32)CN1CC1CCC1 (stereo unspecified)	> 2
CC1CN2C(=O)CNc3cc(Cl)cc(c32)CN1CC1CC1 (stereo unspecified)	> 10
CCCN1Cc2cccc3c2N(CC1C)C(=O)C3 (stereo unspecified)	> 250
CCCN1Cc2cccc3[nH]c(Cl)c(c23)CC1C (stereo unspecified)	> 50
CCCN1Cc2cccc3nnn(c23)CC1C (stereo unspecified)	> 10
CC(C)=CCN1Cc2cccc3nc(Sc4ccccc4)n(c23)CC1C (stereo unspecified)	> 50
CCCN1Cc2cccc3c2n(c(=O)n3C(C)C)CC1C (stereo unspecified)	> 250
CCC(=CCN1Cc2cc(Cl)cc3nc(O)n(c23)CC1C)CC (stereo unspecified)	0.029
CCCN1Cc2cccc3[nH]c(=O)c(=O)n(c23)CC1C (stereo unspecified)	> 250
CC(C)=CCN1Cc2cccc3nc(O)n(c23)CC1C (stereo unspecified)	9.8
